Experiment [1] relates to Diplococcus pneumoniae Type III. As to the kind of experiment: MIC, broth dilution method. The settings on record: Streptococcus pneumoniae, 20 h; Table 5; 10% horse blood supplemented into the medium; read-out: Minimum inhibitory concentration. In kind it is cell-based. (In general: Broth dilution looks for growth in wells or tubes with falling amounts of substance.)
Experiment [2] relates to Staphylococcus aureus FDA 209P. As to the kind of experiment: MIC, broth dilution method. The conditions noted are these: FDA209P, Table 5, 35° C. 20 hours, read-out: Minimum inhibitory concentration. In kind it is cell-based.
Experiment [3] concerns Citrobacter freundii E-9. Briefly: Potentiating and synergistic effect, pulp disc inhibition zone on agar plate. The class given is cell-based. The settings on record: Table 6, disc 20 μl, PS-6 240 μg/ml, reference antibiotics 10,000 μg/ml. On the procedure:
(§1) 10 ml of 2.5 folds diluted nutrient agar (pH 7.0) containing 50 μg/ml of penicillin G or cephaloridine was seeded with the β-lactamase producing and β-lactam-resistant microorganisms and poured in a 9 cm Petri dish to provide the bio-assay agar plate. On this assay plate, 8 mm of pulp discs each containing 20 μl of antibiotic PS-6 solution at the concentration of 240 μg/ml were placed and incubated at 35° C. for 18 hours before reading the inhibition zones. A control assay plate was similarly prepared without penicillin G or cephaloridine. As reference antibiotics, 10,000 μg/ml of penicillin G or 20 μl of cephaloridine were disc-assayed under the same conditions.

In experiment [4] the test system is Serratia marcescens S-18. The experiment is described as above. The settings on record: Table 6, disc 20 μl, PS-6 240 μg/ml, reference antibiotics 10,000 μg/ml. The class given is cell-based. On the procedure:
as §1

The subject of experiment [5] is Bacillus subtilis ATCC 6633. Briefly: MIC, broth dilution method. The conditions noted are these: ATCC6633, 20 h, read-out: Minimum inhibitory concentration.
Experiment [6] relates to Serratia marcescens S-18. As to the kind of experiment: MIC, broth dilution method. The settings on record: S18, 20 h, read-out: Minimum inhibitory concentration.
For experiment [7], the system named is Klebsiella pneumoniae K-2. Briefly: MIC, broth dilution method. The settings on record: Klebsiella pneumoniae, K2, 20 h, read-out: Minimum inhibitory concentration.
Experiment [8] concerns Enterobacter sp. E-8. As to the kind of experiment: MIC, broth dilution method. The settings on record: SP.E8, 20 h, read-out: Minimum inhibitory concentration.
In experiment [9] the test system is Enterobacter aerogenes E-19. Briefly: MIC, broth dilution method. The conditions noted are these: Klebsiella aerogenes, E19, 20 h, read-out: Minimum inhibitory concentration.
Experiment [10] relates to Proteus rettgeri P-7. As to the kind of experiment: MIC, broth dilution method. The settings on record: Providencia rettgeri, P7, 20 h, read-out: Minimum inhibitory concentration.
Experiment [11] has as its system Staphylococcus aureus FDA 209P. Briefly: MIC, broth dilution method. In kind it is cell-based. The settings on record: Staphylococcus aureus, FDA209P; Table 7; no unit in the head; read-out: Minimum inhibitory concentration.
[12] abbreviates: agar containing 50 μg/ml of cephaloridine.
The mark [13] stands for this setting: agar containing 50 μg/ml of penicillin G.

Molecules are shown by their SMILES. Values after ≈ are worked out from the molar mass of the structure shown. Where two headings read alike, the source gives them in different places.

Turning to `CC(=O)NCCSC1=C(C(=O)O)N2C(=O)C(C(C)C)C2C1` (stereo not drawn) [Antibiotic PS-6], the MIC in experiment [1] turned out to be 0.17 µg/mL (≈ 0.544 µM); in experiment [2] it was 0.33 µg/mL (≈ 1.06 µM); in experiment [5] it was 1.34 µg/mL (≈ 4.29 µM); in experiment [6], 50 µg/mL (≈ 160 µM); in experiment [7], 12.5 µg/mL (≈ 40 µM); in experiment [8], 12.5 µg/mL (≈ 40 µM). The MIC in [9] amounted to 25 µg/mL (≈ 80 µM); in experiment [10], 6.25 µg/mL (≈ 20 µM). In addition, the zone of inhibition at 240 µg/mL in experiment [3] (Citrobacter freundii, E9, 18 h, plate without penicillin G or cephaloridine, read-out: Inhibition zone, Control) was found to be 22 mm; in experiment [4] (Serratia marcescens, S18, 18 h, plate without penicillin G or cephaloridine, read-out: Inhibition zone, Control) it was 20 mm. For the same compound, the “Inhibition zone, with cephaloridine” value in experiment [3] (setting [12]) turned out to be 25.0 mm; in experiment [4] (setting [12]), 26.0 mm. For the same compound, the “Inhibition zone, with penicillin G” value is 23.0 mm in experiment [3] (setting [13]) and 22.0 mm in [4] (setting [13]).

Regarding `CCC1C(=O)N2C(C(=O)O)=C(SC=CNC(C)=O)CC12` (stereo not drawn) [Antibiotic PS-7], the MIC in [11] was below 0.19 µg/mL.

(Values after patent publication US4368203A, “Antibiotics and derivatives thereof having β-lactamase inhibitory activity and production thereof” (priority 1977, dated 1983).)
